From patent publication US20260144875A1, “COMPOSITIONS AND METHODS FOR CROSSLINKING STRUCTURAL PROTEINS” (ADS Therapeutics LLC, priority 2022, published 2026)

Legend:
[1] = Stability of riboflavin tetrabutyrate in organic solvents; format: physicochemical; details: RTB
Description: The stability of riboflavin tetrabutyrate (RTB) in various solvents was investigated. Using similar sample analysis methods described in Examples 1a-1c, the stability of RTB in formulations of MCT, F6H8, and combinations were monitored at various temperatures.

porcine corneas = assay: Ex vivo study (Dresden method), RTB-UVA crosslinking, static stress-strain, de-epithelialized corneas; details: de-epithelialized porcine corneal strips; 0.1% RTB in MCT or F6H8 or combination; UVA 370 nm, 3 mW/cm2, 30 minutes
Method: Fresh porcine cadaver eyes with intact epithelia and clear corneas are retrieved from the local slaughterhouse within 2 to 5 hours post-mortem. The eyes are de-epithelialized mechanically, removing the corneoscleral ring with scissors. […] Because of the natural thickness of the porcine cornea, only 1 corneal strip with clearly cut perpendicular edges could be prepared properly from each eye. Half of the corneas are treated with RTB-UVA irradiation, and half are used as untreated controls. Using ultrasound pachymetry (Pachette, Technomed), the central corneal thickness is determined in the eyes. […]
The porcine corneal strips are clamped horizontally at a distance of 8.0 mm between the jaws of a commercially available microcomputer-controlled biomaterial tester (Minimat, Rheometric Scientific GmbH. To include the physiological stress range, a prestress of 5×10^3 Pa (1 Pa=1 N/m2) is used, which requires a force of 20 mN in porcine corneas. The strain is then increased linearly with a velocity of 1.5 mm min-1, and the stress is measured up to 2×10^5 Pa. The stress-strain values are fitted by an exponential function σ=A exp (BX) using the SPSS-calculation program (SPSS GmbH Software, Munich). Young's modulus (E) is calculated for 4%, 6%, and 8% strain as the gradient of the stress-strain graph (E=dσ/dε=A×B exp (B×ε). […]

[2] = Sample X1, 0.2%, MCT 100%, F6H8 0%, 2-8° C.
[3] = Sample X2, 0.2%, MCT 100%, F6H8 0%, 25° C.
[4] = Sample X3, 0.2%, MCT 100%, F6H8 0%, 40° C.
[5] = Sample X4, 0.1%, MCT 70%, F6H8 30%, 2-8° C.
[6] = Sample X5, 0.1%, MCT 70%, F6H8 30%, 25° C.
[7] = Sample X6, 0.1%, MCT 70%, F6H8 30%, 40° C.
[8] = Sample X7, 0.1%, MCT 50%, F6H8 50%, 2-8° C.
[9] = Sample X8, 0.1%, MCT 50%, F6H8 50%, 25° C.
[10] = Sample X9, 0.1%, MCT 50%, F6H8 50%, 40° C.

CCCC(=O)OC[C@@H](OC(=O)CCC)[C@@H](OC(=O)CCC)[C@H](Cn1c2nc(=O)[nH]c(=O)c-2nc2cc(C)c(C)cc21)OC(=O)CCC [RTB, (2R,3S,4S)-5-(7,8-dimethyl-2,4-dioxo-3,4-dihydrobenzo[g]pteridin-10(2H)-yl) pentane-1,2,3,4-tetrayl tetrabutyrate]
Appearance (clear/precip.) 0 hr [1, 2]: clear | Conc. 0 hr [1, 2]: 2.055, mg/mL | Appearance (clear/precip.) 1 Month [1, 2]: clear | Conc. 1 Month [1, 2]: 1.832, mg/mL | Appearance (clear/precip.) 14 days [1, 2]: clear | Conc. 14 days [1, 2]: 1.837, mg/mL | Appearance (clear/precip.) 0 hr [1, 3]: clear | Conc. 0 hr [1, 3]: 2.055, mg/mL | Appearance (clear/precip.) 1 Month [1, 3]: clear | Conc. 1 Month [1, 3]: 1.817, mg/mL | Appearance (clear/precip.) 14 days [1, 3]: clear | Conc. 14 days [1, 3]: 1.888, mg/mL | Appearance (clear/precip.) 0 hr [1, 4]: clear | Conc. 0 hr [1, 4]: 2.055, mg/mL | Appearance (clear/precip.) 1 Month [1, 4]: clear | Conc. 1 Month [1, 4]: 1.833, mg/mL | Appearance (clear/precip.) 14 days [1, 4]: clear | Conc. 14 days [1, 4]: 1.958, mg/mL | Appearance (clear/precip.) 0 hr [1, 5]: clear | Conc. 0 hr [1, 5]: 1.077, mg/mL | Appearance (clear/precip.) 1 Month [1, 5]: clear | Conc. 1 Month [1, 5]: 0.960, mg/mL | Appearance (clear/precip.) 14 days [1, 5]: clear | Conc. 14 days [1, 5]: 1.015, mg/mL | Appearance (clear/precip.) 0 hr [1, 6]: clear | Conc. 0 hr [1, 6]: 1.077, mg/mL | Appearance (clear/precip.) 1 Month [1, 6]: clear | Conc. 1 Month [1, 6]: 0.953, mg/mL | Appearance (clear/precip.) 14 days [1, 6]: clear | Conc. 14 days [1, 6]: 1.012, mg/mL | Appearance (clear/precip.) 0 hr [1, 7]: clear | Conc. 0 hr [1, 7]: 1.077, mg/mL | Appearance (clear/precip.) 1 Month [1, 7]: clear | Conc. 1 Month [1, 7]: 0.962, mg/mL | Appearance (clear/precip.) 14 days [1, 7]: clear | Conc. 14 days [1, 7]: 1.027, mg/mL | Appearance (clear/precip.) 0 hr [1, 8]: clear | Conc. 0 hr [1, 8]: 1.123, mg/mL | Appearance (clear/precip.) 1 Month [1, 8]: precip. | Conc. 1 Month [1, 8]: 0.848, mg/mL | Appearance (clear/precip.) 14 days [1, 8]: precip. | Conc. 14 days [1, 8]: 0.976, mg/mL | Appearance (clear/precip.) 0 hr [1, 9]: clear | Conc. 0 hr [1, 9]: 1.123, mg/mL | Appearance (clear/precip.) 1 Month [1, 9]: clear | Conc. 1 Month [1, 9]: 0.993, mg/mL | Appearance (clear/precip.) 14 days [1, 9]: clear | Conc. 14 days [1, 9]: 1.056, mg/mL | Appearance (clear/precip.) 0 hr [1, 10]: clear | Conc. 0 hr [1, 10]: 1.123, mg/mL | Appearance (clear/precip.) 1 Month [1, 10]: clear | Conc. 1 Month [1, 10]: 0.984, mg/mL | Appearance (clear/precip.) 14 days [1, 10]: clear | Conc. 14 days [1, 10]: 1.054, mg/mL | stress using strain, treated vs untreated corneas (porcine corneas): greater in the treated corneas
